The target in test [1] is recombinant His-tag Wip1(2-420) protein (amino acids #2-420) (Homo sapiens (Human), UniProt O15297). Put plainly: Wip1(2-420) phosphatase enzyme FDP assay. It counts as biochemical. Conditions: fluorescein diphosphate (FDP) substrate, RT 2 hours, fluorescence Ex485/Em535; read-out: WIP1 (Truncated 2-420) FDP Assay: IC50.
The target in test [2] is recombinant His-tag Wip1 full length protein (amino acids #1-605) (Homo sapiens (Human), UniProt O15297). The test can be described thus: Wip1 full length phosphatase enzyme FDP assay. The test is classed as biochemical. Conditions: fluorescein diphosphate (FDP) substrate, RT 2 hours, fluorescence Ex485/Em535.
Sequence of recombinant His-tag Wip1 full length protein (amino acids #1-605) (O15297 whole entry): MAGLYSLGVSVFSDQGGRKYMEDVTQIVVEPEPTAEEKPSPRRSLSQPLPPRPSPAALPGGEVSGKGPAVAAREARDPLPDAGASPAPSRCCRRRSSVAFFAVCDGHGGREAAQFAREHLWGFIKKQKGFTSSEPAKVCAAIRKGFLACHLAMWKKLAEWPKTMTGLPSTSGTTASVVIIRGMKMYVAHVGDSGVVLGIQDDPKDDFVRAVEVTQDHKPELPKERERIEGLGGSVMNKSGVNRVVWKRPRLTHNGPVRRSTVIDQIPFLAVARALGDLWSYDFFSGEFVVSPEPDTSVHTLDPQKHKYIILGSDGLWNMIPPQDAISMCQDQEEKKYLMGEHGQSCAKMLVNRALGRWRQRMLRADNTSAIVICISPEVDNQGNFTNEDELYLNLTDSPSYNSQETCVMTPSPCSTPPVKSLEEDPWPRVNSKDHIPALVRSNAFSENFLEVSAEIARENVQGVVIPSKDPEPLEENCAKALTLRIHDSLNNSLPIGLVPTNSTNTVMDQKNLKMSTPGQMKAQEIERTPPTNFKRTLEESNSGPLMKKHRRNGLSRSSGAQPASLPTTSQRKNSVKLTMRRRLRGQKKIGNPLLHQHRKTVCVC

Sequence of recombinant His-tag Wip1(2-420) protein (amino acids #2-420) (O15297 2-420): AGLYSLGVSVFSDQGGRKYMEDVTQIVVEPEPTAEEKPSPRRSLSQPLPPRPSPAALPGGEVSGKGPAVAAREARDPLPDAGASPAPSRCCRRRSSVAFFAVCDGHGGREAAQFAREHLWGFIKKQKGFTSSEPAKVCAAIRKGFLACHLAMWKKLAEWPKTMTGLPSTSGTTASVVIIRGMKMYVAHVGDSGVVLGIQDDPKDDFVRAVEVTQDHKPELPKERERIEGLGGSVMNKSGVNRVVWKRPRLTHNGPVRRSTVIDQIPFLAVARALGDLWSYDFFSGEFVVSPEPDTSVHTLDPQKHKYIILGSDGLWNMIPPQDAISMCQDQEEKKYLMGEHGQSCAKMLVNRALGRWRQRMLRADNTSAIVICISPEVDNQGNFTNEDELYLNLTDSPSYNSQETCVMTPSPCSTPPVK

As for `CC[C@@H](Nc1cc(Cl)cnc1C)c1ccc(C(=O)N[C@@H](CC2CCCC2)C(=O)N[C@@H]2CC2(F)F)s1` [Compound 50, (2S)-2-({5-[(1R)-1-[(5-chloro-2-methylpyridin-3-yl)amino]propyl]thiophen-2-yl}formamido)-3-cyclopentyl-N-[(1R)-2,2-difluorocyclopropyl]propanamide], the IC50 in test [1] came to 122 nM; in test [2], 170 nM.
On to `Cc1ncc(Cl)cc1N[C@@H](C)c1ccc(C(=O)N[C@@H](CC2CCCC2)C(=O)NC2(C#N)CC2)s1` [Compound 34, (2S)-2-({5-[(1S)-1-[(5-chloro-2-methylpyridin-3-yl)amino]ethyl]thiophen-2-yl}formamido)-N-(1-cyanocyclopropyl)-3-cyclopentylpropanamide], for which the values for the IC50 in test [1] and in test [2] were 17 nM and 34 nM, respectively.
On the same counts, the results for `Cc1ncc(Cl)cc1N[C@@H](C)c1ccc(C(=O)N[C@@H](CC2CCCC2)C(=O)NC2CCN(C)CC2)s1` [Compound 32, (2S)-2-({5-[(1S)-1-[(5-chloro-2-methylpyridin-3-yl)amino]ethyl]thiophen-2-yl}formamido)-3-cyclopentyl-N-(1-methylpiperidin-4-yl)propanamide] are 48 nM and 73 nM.
The matching figures for `Cc1ncc(Cl)cc1N[C@@H](C)c1ccc(C(=O)N[C@@H](CC2CCCC2)C(=O)NC23CC(C)(C2)C3)s1` [Compound 17, (2S)-2-({5-[(1S)-1-[(5-chloro-2-methylpyridin-3-yl)amino]ethyl]thiophen-2-yl}formamido)-3-cyclopentyl-N-{3-methylbicyclo[1.1.1]pentan-1-yl}propanamide]: 7 nM and 6 nM.
For `Cc1ncc(Cl)cc1N[C@H](C)c1ccc(C(=O)N[C@@H](CC2CCCC2)C(=O)N[C@H]2CC2(F)F)s1` [Compound 21, (2S)-2-({5-[(1R)-1-[(5-chloro-2-methylpyridin-3-yl)amino]ethyl]thiophen-2-yl}formamido)-3-cyclopentyl-N-[(1S)-2,2-difluorocyclopropyl]propanamide], the IC50 in test [1] was 109 nM; in test [2], 139 nM.
On the same counts, the results for `CC[C@H](Nc1cc(Cl)cnc1C)c1ccc(C(=O)N[C@@H](CC2CCCC2)C(=O)N[C@H]2CC2(F)F)s1` [Compound 48, (2S)-2-({5-[(1S)-1-[(5-chloro-2-methylpyridin-3-yl)amino]propyl]thiophen-2-yl}formamido)-3-cyclopentyl-N-[(1S)-2,2-difluorocyclopropyl]propanamide] are 5 nM and 8 nM.
In the case of `C[C@H](Nc1cccc(Cl)c1)c1ccc(C(=O)N[C@@H](CC2CCCC2)C(=O)NC2CC2)s1` [Compound 2, 5-[(1S)-1-(3-chloroanilino)ethyl]-N-[(1S)-1-(cyclopentylmethyl)-2-(cyclopropylamino)-2-oxo-ethyl]thiophene-2-carboxamide], the values for the IC50 in test [1] and in test [2] were 232 nM and 117 nM, respectively.
On the same counts, the results for `Cc1ncc(Cl)cc1NCc1ncc(C(=O)N[C@@H](CC2CCCCC2)C(=O)Nc2ccncc2)s1` [Compound 300, 2-[[(5-chloro-2-methyl-3-pyridyl)amino]methyl]-N-[(1S)-1-(cyclohexylmethyl)-2-oxo-2-(4-pyridylamino)ethyl]thiazole-5-carboxamide] are 6 nM and 15 nM.
For `CC(Nc1cccc(Cl)c1)c1ccc(C(=O)N[C@@H](CC2CCCC2)C(=O)NC2CC2)s1` (stereo partly drawn) [Compound 4, 5-[1-(3-chloroanilino)ethyl]-N-[(1S)-1-(cyclopentylmethyl)-2-(cyclopropylamino)-2-oxo-ethyl]thiophene-2-carboxamide], the figures for the IC50 in test [1] and in test [2] were 79 nM and 15 nM, respectively.
`CN(Cc1ncc(C(=O)N[C@@H](CC2CCCCC2)C(=O)Nc2ccncc2)s1)c1cncc(Cl)c1` [Compound 301, 2-[[(5-Chloro-3-pyridyl)-methyl-amino]methyl]-N-[(1S)-1-(cyclohexylmethyl)-2-oxo-2-(4-pyridylamino)ethyl]thiazole-5-carboxamide]: the IC50 stood at 42 nM in test [1] and 23 nM in test [2].
On the same counts, the results for `Cc1ncc(Cl)cc1N[C@@H](C)c1ccc(C(=O)N[C@@H](CC2CCCC2)C(=O)NC23CC(C#N)(C2)C3)s1` [Compound 31, (2S)-2-({5-[(1S)-1-[(5-chloro-2-methylpyridin-3-yl)amino]ethyl]thiophen-2-yl}formamido)-N-{3-cyanobicyclo[1.1.1]pentan-1-yl}-3-cyclopentylpropanamide] are 10 nM and 16 nM.
Regarding `Cc1ncc(Cl)cc1N[C@@H](C)c1ccc(C(=O)N[C@@H](CC2CCCC2)C(=O)Nc2ccc3c(c2)CCCN3C)s1` [Compound 168, (2S)-2-({5-[(1S)-1-[(5-chloro-2-methylpyridin-3-yl)amino]ethyl]thiophen-2-yl}formamido)-3-cyclopentyl-N-(1-methyl-1,2,3,4-tetrahydroquinolin-6-yl)propanamide], the IC50 in test [1] stood at 11 nM; in test [2], 15 nM.
On the same counts, the results for `Cc1cc(NC(=O)[C@@H](NC(=O)c2ccc([C@H](C)Nc3cc(Cl)cnc3C)s2)C2CCCCC2)ccn1` [Compound 175, (2S)-2-({5-[(1S)-1-[(5-chloro-2-methylpyridin-3-yl)amino]ethyl]thiophen-2-yl}formamido)-2-cyclohexyl-N-(2-methylpyridin-4-yl)acetamide] are 13 nM and 15 nM.
On to `Cc1ncc(Cl)cc1N[C@@H](C)c1ccc(C(=O)N[C@@H](CC2CCCC2)C(=O)NC2CC2(F)F)s1` (stereo partly drawn) [Compound 14, (2S)-2-({5-[(1S)-1-[(5-chloro-2-methylpyridin-3-yl)amino]ethyl]thiophen-2-yl}formamido)-3-cyclopentyl-N-(2,2-difluorocyclopropyl)propanamide], for which the concentration for half-maximal inhibition (IC50) in test [1] was 7 nM; in test [2], 6 nM.
Consider `COC(=O)C12CC(NC(=O)[C@H](CC3CCCC3)NC(=O)c3ccc([C@H](C)Nc4cc(Cl)cnc4C)s3)(C1)C2` [Compound 19, methyl 3-[(2S)-2-({5-[(1S)-1-[(5-chloro-2-methylpyridin-3-yl)amino]ethyl]thiophen-2-yl}formamido)-3-cyclopentylpropanamido]bicyclo[1.1.1]pentane-1-carboxylate], for which the IC50 in test [1] worked out at 11 nM; in test [2] it was 13 nM.
The matching figures for `COc1ncc(Cl)cc1N[C@@H](C)c1ccc(C(=O)N[C@@H](CC2CCCC2)C(=O)NC23CC(C2)C3)s1` [Compound 60, (2S)-N-{bicyclo[1.1.1]pentan-1-yl}-2-({5-[(1S)-1-[(5-chloro-2-methoxypyridin-3-yl)amino]ethyl]thiophen-2-yl}formamido)-3-cyclopentylpropanamide]: 6 nM and 7 nM.
On the same counts, the results for `Cc1ncc(Cl)cc1N[C@@H](C)c1ccc(C(=O)N[C@@H](CC2CCCC2)C(=O)NC23CC(C2)C3)s1` [Compound 11, (2S)-N-{bicyclo[1.1.1]pentan-1-yl}-2-({5-[(1S)-1-[(5-chloro-2-methylpyridin-3-yl)amino]ethyl]thiophen-2-yl}formamido)-3-cyclopentylpropanamide] are 6 nM and 9 nM.
On the same counts, the results for `CN(Cc1ncc(C(=O)N[C@@H](CC2CCCCC2)C(=O)Nc2ccncc2)s1)c1cncc(Cl)c1` [Compound 287, 2-[[(5-chloro-3-pyridyl)-methyl-amino]methyl]-N-[(1S)-1-(cyclohexylmethyl)-2-oxo-2-(4-pyridylamino)ethyl]thiazole-5-carboxamide] are 6 nM and 14 nM.
For the compound `CC[C@@H](Nc1cc(Cl)cnc1C)c1ccc(C(=O)N[C@@H](CC2CCCC2)C(=O)N[C@H]2CC2(F)F)s1` [Compound 51, (2S)-2-({5-[(1R)-1-[(5-chloro-2-methylpyridin-3-yl)amino]propyl]thiophen-2-yl}formamido)-3-cyclopentyl-N-[(1S)-2,2-difluorocyclopropyl]propanamide], the figures for the IC50 in test [1] and in test [2] were 74 nM and 113 nM, respectively.
On the same counts, the results for `Cc1cc(NC(=O)[C@H](CC2CCCC2)NC(=O)c2cnc([C@@H](C)Nc3cccc(Cl)c3)s2)ccn1` [Compound 120, (2S)-2-({2-[(1R)-1-[(3-chlorophenyl)amino]ethyl]-1,3-thiazol-5-yl}formamido)-3-cyclopentyl-N-(2-methylpyridin-4-yl)propanamide] are 7 nM and 11 nM.
The matching figures for `Cc1cc(NC(=O)[C@H](CC2CCCC2)NC(=O)c2ccc([C@H](C)Nc3cc(Cl)cnc3C)s2)ccn1` [Compound 73, (2S)-2-({5-[(1S)-1-[(5-chloro-2-methylpyridin-3-yl)amino]ethyl]thiophen-2-yl}formamido)-3-cyclopentyl-N-(2-methylpyridin-4-yl)propanamide]: 4 nM and 8 nM.
On the same counts, the results for `CN(Cc1ccc(C(=O)N[C@@H](CC2CCCCC2)C(=O)NC2CCC(N(C)C)CC2)s1)c1cncc(Cl)c1` (stereo partly drawn) [Compound 298, 5-[[(5-chloro-3-pyridyl)-methyl-amino]methyl]-N-[(1S)-1-(cyclohexylmethyl)-2-[[4-(dimethylamino)cyclohexyl]amino]-2-oxo-ethyl]thiophene-2-carboxamide] are 31 nM and 11 nM.
As to `CCc1ncc(Cl)cc1N[C@H](C)c1ccc(C(=O)N[C@@H](CC2CCCC2)C(=O)NC2CC2)s1` [Compound 79, (2S)-2-({5-[(1R)-1-[(5-chloro-2-ethylpyridin-3-yl)amino]ethyl]thiophen-2-yl}formamido)-3-cyclopentyl-N-cyclopropylpropanamide], the values for the IC50 in test [1] and in test [2] were 223 nM and 308 nM, respectively.
Regarding `Cc1cc(NC(=O)[C@H](CC2CCCC2)NC(=O)c2cnc([C@@H](C)Nc3cccc(Cl)c3)s2)cc(C)n1` [Compound 118, (2S)-2-({2-[(1R)-1-[(3-chlorophenyl)amino]ethyl]-1,3-thiazol-5-yl}formamido)-3-cyclopentyl-N-(2,6-dimethylpyridin-4-yl)propanamide], the figures for the concentration for half-maximal inhibition (IC50) in test [1] and in test [2] were 135 nM and 196 nM, respectively.

The values are drawn from patent US20240116910A1, “Heterocycles as WIP1 Inhibitors” (PMV Pharmaceuticals, Inc., priority 2022, published 2024).
